Source: publication PMC4122966, “Novel VCP modulators mitigate major pathologies of rd10, a mouse model of retinitis pigmentosa” (Scientific Reports, 2014)
pIC50: −log10 of the molar value. Where “and” joins values, the source holds several entries; their conditions need not be identical. Equal entries are not always repeated.

Experiments:
recombinant VCP = recombinant VCP (Homo sapiens, UniProt P55072); assay: ATPase activity of recombinant VCP in vitro (modified molybdate assay, [γ-32P]ATP); type: biochemical
Chain of recombinant VCP (P55072 whole entry, species assumed): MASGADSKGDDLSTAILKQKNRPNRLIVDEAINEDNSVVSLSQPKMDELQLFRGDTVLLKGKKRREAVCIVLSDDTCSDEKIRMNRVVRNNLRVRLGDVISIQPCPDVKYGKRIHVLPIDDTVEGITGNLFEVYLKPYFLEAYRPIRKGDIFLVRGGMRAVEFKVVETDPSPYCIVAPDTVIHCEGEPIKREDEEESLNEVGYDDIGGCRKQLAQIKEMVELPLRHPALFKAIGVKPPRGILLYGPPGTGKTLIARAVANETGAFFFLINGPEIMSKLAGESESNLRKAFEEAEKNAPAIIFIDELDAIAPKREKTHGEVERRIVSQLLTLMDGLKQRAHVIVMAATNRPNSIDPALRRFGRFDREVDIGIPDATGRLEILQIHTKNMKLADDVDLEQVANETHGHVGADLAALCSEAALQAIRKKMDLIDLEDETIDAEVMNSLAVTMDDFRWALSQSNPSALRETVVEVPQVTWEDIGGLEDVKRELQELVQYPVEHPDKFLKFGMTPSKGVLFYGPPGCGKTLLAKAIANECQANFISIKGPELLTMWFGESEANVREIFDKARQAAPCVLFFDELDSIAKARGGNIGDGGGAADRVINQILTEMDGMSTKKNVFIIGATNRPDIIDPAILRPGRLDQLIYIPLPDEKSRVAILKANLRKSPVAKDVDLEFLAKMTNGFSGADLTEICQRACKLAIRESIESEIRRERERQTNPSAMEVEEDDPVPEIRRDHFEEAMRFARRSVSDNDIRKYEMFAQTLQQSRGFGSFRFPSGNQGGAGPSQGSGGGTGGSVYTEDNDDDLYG
Procedure: (§1) We measured ATPase activities by modifying the molybdate assay, which was as described previously. In the assay, 1 μg of whole cell soluble lysate of neuronally differentiated PC12 cells, or 500 ng recombinant VCP protein, was incubated in 20 μl of the ATPase assay buffer (20 mM HEPES (pH 7.4), 50 mM KCl, 5 mM MgCl2) with 100 μM [γ-^32P]ATP (18.5 GBq/mmol) (PerkinElmer) at 37°C for 20 min. After incubation, the reaction was quenched by addition of 200 μl of 8% ice-cold trichloroacetic acid solution with 1 mM K2HPO4, and then 50 μl of solution A (3.75% ammonium molybdate, 0.02 M silicotungstic acid in 3 N H2SO4) and 300 μl of n-butyl acetate were added to the reaction. The samples were mixed well and centrifuged at 12,000 × g for 1 min. Then, 200 μl aliquots from the upper organic phases were taken and their radioactivity was determined with a liquid scintillation counter for β-radiation, which determined the amounts of ^32P released.

HeLa cells [1] = assay: relative ATP amounts per cell in tunicamycin-treated cells; type: cell-based; settings: Tm 0.5 μg/ml, 24 hours, KUSs 50 μM
Procedure: (§2) Figure 4 KUSs and ATP each prevented a decrease of ATP levels and ameliorated ER stress in tunicamycin-treated cells. (a) Immunocytochemical analyses of HeLa cells by an anti-laminin γ1 antibody. HeLa cells were treated with 0.5 μg/ml of tunicamycin (Tm) for 5 hours in the presence of KUSs (50 μM), ATP (0.1, 0.3, and 1 mM), methylpyruvate (MePyr) (3 and 10 mM), or vehicle alone (DMSO). Then, cells were fixed and subjected to immunocytochemical analyses. Normally growing HeLa cells were also analyzed (Control). Scale bar, 10 μm. (b) Measurements of the relative amounts of ATP per cell. HeLa cells were treated with tunicamycin (Tm, 0.5 μg/ml) for 24 hours in the presence of KUSs (50 μM) or ATP (0.1 and 1 mM), or vehicle alone (DMSO), and were harvested. Then, ATP amounts from 1.5 × 10^5 cells were measured. * P < 0.05, ** P < 0.01. Error bars indicate SD. (c) Western blot analyses on CHOP. HeLa cells were treated with 0.5 μg/ml of tunicamycin for 5 hours in the presence of KUSs (50 μM), ATP (0.1, 0.3, and 1 mM), methylpyruvate (MePyr) (3 and 10 mM), or vehicle alone (-). Then, cells were harvested and subjected to western blot analyses. Actin served as a loading control. Complete scans of the different blots are presented in Supplementary Fig. 9.

[2] = tested on: whole cell soluble lysate of neuronally differentiated PC12 cells; assay: total ATPase activity in clarified whole cell lysates; type: biochemical
Procedure: Figure 3 Effects of KUSs on ATPase activities, ATP levels, and acetyl-CoA levels. (a) Inhibition of ATPase activity in clarified whole cell lysates by KUS121, KUS187, and KUS94, but not KUS11. Total ATPase activities in clarified whole cell lysates from differentiated PC12 cells were measured in the absence and presence of KUSs. Relative ATPase activities are shown with values in the absence of KUS (D: DMSO) set at 100%. (b) HeLa cells were cultured in medium with low glucose (0.25 g/l) for 20 hours, with or without KUSs, and ATP levels were measured with luciferase assays. (c) HeLa cells were cultured in medium with low glucose (0.25 g/l) for 20 hours, with or without KUSs, and acetyl-CoA levels were measured. * P < 0.05, ** P < 0.01, *** P < 0.001 vs. DMSO control (Dunnett's test, n = 3).
as §1

[3] = tested on: essentially all tested cultured cells; assay: cellular toxicity on cultured cells; type: cell-based; settings: up to 50 μM
HeLa cells [4] = assay: cell death-inducing activity; type: cell-based; settings: 50 μM, 24 hours
Text: (§3) Figure 1 Structures and characterization of KUSs, novel VCP modulators. (a) Structures and IC50 values of KUS11, KUS31, KUS69, KUS94, KUS121, and KUS187. […] (b) ATPase activity assays of recombinant human […], comparing KUSs and DBeQ. (c) Immunoblot analysis of ubiquitinated proteins, an ER stress marker (CHOP), and an autophagy indicator (LC3), comparing KUSs and DBeQ. As a control, MG132, a proteasome inhibitor, was used for the analysis. Actin served as a loading control. Complete scans of the different blots are presented in Supplementary Fig. 7. (d) Comparison of KUSs and DBeQ for cell death-inducing activities. HeLa cells were treated with 50 μM DBeQ or KUSs for 24 hours. […]

cellular VCP functions = assay: immunoblot of ubiquitinated proteins, CHOP (ER stress) and LC3 (autophagy) in cultured cells; type: cell-based
Text: as §3

HeLa cells [5] = assay: immunocytochemistry of laminin γ1 aggregation in tunicamycin-treated cells; type: cell-based; settings: HeLa, Tm 0.5 μg/ml, 5 hours
Procedure: as §2

rd10 mice = assay: rd10 mouse model of retinitis pigmentosa (SD-OCT, electroretinogram, histology, electron microscopy, western blot); type: in vivo; settings: 21-day-old
Procedure: Starting 7 days after birth, KUS121 or KUS187 was administered daily (50 mg/kg) by intraperitoneal injection. […] To test the visual function of the mice, dark-adapted electroretinograms were recorded. The amplitude of the a-wave, which represents visual function of photoreceptors, was smaller in the control mice than in the KUS-treated mice (Supplementary Fig. 5b and c). The peak latency of the a-wave, which negatively correlates with visual function of photoreceptors, was delayed in the control mice as compared with the KUS-treated mice (Supplementary Fig. 5d). At age 25 days, the thinning of the outer nuclear layer (ONL) was clearly observed in the control mice (Fig. 5a). The outer nuclear layer and the junction line between the inner segment and outer segment (arrow heads in Fig. 5a), which is generally considered to be positively associated with visual function, were clearly detected in the KUS-treated but not in control mice. […] At age 29 days, the photoreceptor layer was barely detected in SD-OCT images, and electroretinogram records were almost flat in control mice. […]
Spectral-domain optical coherence tomography (SD-OCT) examinations using Multiline OCT (Heidelberg Engineering, Heidelberg, Germany) were performed[33] in rd10 mice at ages of 21, 25, 29, and 33days. Total retinal thickness (from inner limiting membrane to Bruch membrane) in rd10 mice was measured using volume scan images[33] within a circle 0.366 mm in diameter, the center of which was adjusted to the center of the optic nerve head. […]
Electroretinogram recording was performed to assess the visual function of rd10 mice at ages of 21, 25, 29, and 33 days. […] Electroretinograms were recorded using a gold loop corneal electrode with a light-emitting diode (Mayo Corp., Inazawa, Japan). […] The electroretinogram response signals were amplified, digitized at 10 kHz with a band-pass filter of 0.3 to 500 Hz, and analyzed (PowerLab 2/25; AD instruments, New South Wales, Australia). […]

[6] = tested on: tunicamycin-treated HeLa cells; assay: western blot of ER stress markers and phospho-Akt in tunicamycin-treated cells; type: cell-based; settings: Tm 0.5 μg/ml, 5 hours, 3 to 10 mM methylpyruvate
Procedure: Figure 2 Prevention of cell death and ER stress by KUSs. (a) Photographs of HeLa cells, cultured with DMSO (DMSO) or KUSs (KUS94, KUS121, and KUS187, 20 μM each) for 41 hours in low glucose (0.2 g/l) medium. Scale bar, 100 μm. (b–e) WST (water-soluble tetrazolium salts) values reflecting relative live cell numbers are shown, as optical density (OD) at 450 nm. Error bars indicate SD. (b) WST values of HeLa cells, cultured in low glucose (0.2 g/l) with DMSO (control) or KUSs (50 μM for KUS121; 20 μM for KUS69, KUS94, and KUS187, n = 3) for 41 hours. (c) Cell viability, indicated by WST values of HeLa cells, cultured with tunicamycin (Tm) (0.2 μg/ml) for 41 hours with KUSs (20 μM each, n = 3). (d) WST values of HEK293 cells, cultured under serum-free conditions for 65 hours with DMSO (control) or KUSs (20 μM each, n = 3). *** P < 0.001, vs. DMSO control (Dunnett's test). (e) WST values of HeLa cells, cultured in low glucose (0.2 g/l) medium with different concentrations of KUS121 (5, 10, 20, and 50 μM, n = 3) for 41 hours. ** P = 0.008, *** P < 0.001, vs. DMSO control (Dunnett's test). […]
Figure 4 KUSs and ATP each prevented a decrease of ATP levels and ameliorated ER stress in tunicamycin-treated cells. […] Normally growing HeLa cells were also analyzed (Control). […] Then, ATP amounts from 1.5 × 10^5 cells were measured. * P < 0.05, ** P < 0.01. […]

Structure (SMILES) | pIC50 (recombinant VCP) | decrease of ATP levels in tunicamycin-treated cells (HeLa cells [1]) | inhibition of total ATPase activity in clarified lysates [2] | apparent cellular toxicity [3] | induction of cell death (HeLa cells [4]) | induction of accumulation of ubiquitinated proteins, ER stress (CHOP), autophagy (LC3) (cellular VCP functions) | aggregation of laminin γ1 (HeLa cells [5]; 50 μM KUS) | lowering of total ATPase activity ([2]; 1 μM compound) | lowering of total ATPase activity ([2]; 100 nM compound) | outer segment morphology by electron microscopy (rd10 mice) | mean amplitude of the a-wave, dark-adapted electroretinogram (rd10 mice; 50 mg/kg daily i.p. from day 7, vs control) | aggregation of laminin γ1 (HeLa cells [5]; 3 to 10 mM methylpyruvate) | induction of ER stress (CHOP induction) [6]
Nc1ccc2cc(S(=O)(=O)O)ccc2c1/N=N/c1ccccc1 [KUS11] | < 4.00 | unable to prevent the tunicamycin-elicited ATP decrease | did not show any significant inhibition | – | – | – | – | – | – | – | – | – | –
Nc1c(/N=N/c2ccc(-c3ccccc3)nc2)cc(S(=O)(=O)O)c2ccccc12 [KUS31] | 6.64 | – | – | did not manifest any apparent cellular toxicity | did not induce any of these phenotypes | did not induce any of these phenotypes | – | – | – | – | – | – | –
Nc1c(/N=N/c2ccc(-c3ccccc3-c3ccccc3)nc2)cc(S(=O)(=O)O)c2ccccc12 [KUS69] | 6.94 | – | – | did not manifest any apparent cellular toxicity | did not induce any of these phenotypes | did not induce any of these phenotypes | clearly prevented the aggregation of laminin γ1 | – | – | – | – | – | –
Nc1c(/N=N/c2ccc(-c3cccc4c3sc3ccccc34)nc2)cc(S(=O)(=O)O)c2ccccc12 [KUS94] | 6.00 | – | – | did not manifest any apparent cellular toxicity | did not induce any of these phenotypes | did not induce any of these phenotypes | clearly prevented the aggregation of laminin γ1 | approximately 20% | – | – | – | – | –
CCCCOc1c(C=O)cc(C)cc1-c1ccc(/N=N/c2cc(S(=O)(=O)O)c3ccccc3c2N)cn1 [KUS187] | 6.52 to 6.70 and 6.73 | – | – | did not manifest any apparent cellular toxicity | did not induce any of these phenotypes | did not induce any of these phenotypes | clearly prevented the aggregation of laminin γ1 | ~40% | approximately 20% | well preserved | larger than that in control rd10 mice | – | –
COC(=O)C(C)=O [methylpyruvate] | – | – | – | – | – | – | – | – | – | – | – | ineffective in preventing the aggregation of laminin γ1 | dampen the induction of ER stress
